Data on two substances can be found in patent EP4631968A1, “PEPTIDE FOR CARTILAGE REGENERATION, AND USES THEREOF” (Caregen Co., Ltd., priority 2022, dated 2024).

Where no end group is shown, it is not given here.

Common to all, as to format: cell-based
Data set [1] has as its system human adipose-derived mesenchymal stem cells (AD-MSC). Put plainly: Cytotoxicity, CCK-8 assay. The following applies: different concentrations, after 7 days, 450 nm. On the technique in general: Tetrazolium dyes change colour on reduction, which living cells bring about.
Data set [2] has the same test system. Briefly: Cell morphology changes, SRB staining. The following applies: different concentrations, after 7 days. The method, then:
Additionally, for SRB staining, after suctioning the medium from the plate, 60 µL of 3.7 % formalin was added to the 96-well plate to be stained and fixed for 1 minute. After suctioning 3.7 % formalin, 70 µL of SRB staining solution (sulforhodamine B sodium salt (sigma, S9012): 0.2 g in 100 mL DDW) was added and stained. The plate was covered with aluminum foil, blocked from light, and incubated overnight at room temperature. After washing with 100 µL of 1 % acetic acid using a multi-pipette, it was dried and observed under a microscope.
On the technique in general: In SRB staining, fixed cells bind dye roughly in proportion to their protein.

The subject of data set [3] is human-derived chondrocytes (C28/I2, human chondrocyte cell line). Put plainly: Cytotoxicity, CCK-8 assay. The following applies: C28/I2 cells, different concentrations, after 3 days, 450 nm. On the procedure:
The cytotoxicity of Peptide-1 or Peptide-2 upon addition to human-derived chondrocytes (C28/I2, human chondrocyte cell line) was analyzed using a CCK-8 assay.
Specifically, human-derived chondrocytes were seeded in a 96-well plate at a density of 3 × 10^3 cells/well and cultured in DMEM medium (cat. 11995-065, Gibco) for 24 hours. […] Meanwhile, as a negative control group, an experimental group to which the peptide was not added was used.

As to SSFYF [Peptide-2, SSFYF], the “toxicity (CCK-8 activity)” value in data set [1] and in data set [3] was “did not exhibit toxicity” in each case. The “change in cell morphology in SRB staining” value in data set [2] is on record as “did not show any change in cell morphology”.
On to “KVSYAAEKNRKNY [Peptide-1, KVSYAAEKNRKNY]”, for which the “toxicity (CCK-8 activity)” value in data set [1] and in data set [3] was “did not exhibit toxicity” each time. Also, the “change in cell morphology in SRB staining” value in data set [2] is “did not show any change in cell morphology”.
